US9701645B2 (priority 2005, dated 2017)
Like-named read-outs stand apart in the source and are kept apart here.

Columns and labels:
delta-opioid receptor = molecular target: T1, delta-opioid receptor (Rattus norvegicus, UniProt P33533); assay: Radioligand binding, delta receptor ([3H]DPDPE)
T1 construct: delta and mu receptors from rat whole brain homogenate; from tissue; host or cells: rat whole brain homogenate (membrane fractions)
Method: (§1) The basic pharmacology of the Formulas (i)-(iv) is described below in terms of receptor binding affinity (delta and mu receptors from rat whole brain homogenate; kappa receptors from guinea pig cerebellar homogenate), intrinsic activity in mouse isolated vas deferens (delta receptor) and guinea pig isolated ileum (mu receptor).
(§2) Membrane fractions were incubated with test compound or naloxone (1×10^−6 M) plus 0.1 nM of the delta-opioid receptor agonist [^3H] DPDPE (specific activity 50.6 Ci/mmol), 0.1 nM of the mu-opioid receptor agonist [^3H]DAMGO (specific activity 50.0 Ci/mmol) or 0.1 nM of the kappa-opioid receptor agonist [^3H]U69593 (specific activity 41.4 Ci/mmol) in 2 ml of 10 mM Tris-HCl buffer containing 5 mM MgCl2 and protease inhibitors. Incubation was carried out for 90 min at 25° C. in order to permit the complete equilibration of the radioligand with its receptor. The reaction was terminated by rapid filtration through Whatman GF/C glass fiber filters using a cell harvester (model M-48R, Brandel Instruments, Gaithersberg, Md.) followed by two 5 ml rinses with ice-cold 50 mM Tris buffer. Non-specific binding was defined as that radioligand bound in the presence of 1×10^−6 M naloxone.

mu-opioid receptor [1] = molecular target: T2, mu-opioid receptor (Rattus norvegicus, UniProt P33535); assay: Radioligand binding, mu receptor ([3H]DAMGO)
T2 construct: delta and mu receptors from rat whole brain homogenate; from tissue; host or cells: rat whole brain homogenate (membrane fractions)
Method: as §1, §2

kappa-opioid receptor [2] = molecular target: T3, kappa-opioid receptor (Cavia porcellus, UniProt P41144); assay: Radioligand binding, kappa receptor ([3H]U69593); design: species or system guinea pig
T3 construct: kappa receptors from guinea pig cerebellar homogenate; from tissue; host or cells: guinea pig cerebellar homogenate (membrane fractions)
Method: as §1, §2

delta receptor = molecular target: T4, delta receptor (Mus musculus, UniProt P32300); assay: Intrinsic activity, electrically-induced contractions of mouse isolated vas deferens (MVD); assay type: cell-based
T4 construct: vasa deferentia were isolated from male CD-1 mice; tissue Charles River; host or cells: isolated vas deferens of male CD-1 mice
Method: as §1
Tension development in isolated mouse vas deferens was measured as described previously (Chang et al., 1993). Following cervical dislocation, vasa deferentia were isolated from male CD-1 mice (Charles River, Raleigh, N.C.) weighing 20-25 g. Muscles were suspended in individual organ baths containing Mg-free Krebs-Henseleit solution (37° C., aerated with O2—CO2, 95:5) of the following composition (mM): NaCl, 117.5; KCl, 4.75; CaCl2, 2.6; KH2PO4, 1.2; NaHCO3, 24.5; and glucose, 11. The vas deferens segments were positioned between platinum electrodes (Radnoti Glassware Technology Inc., Monrovia, Calif.) and connected to a Grass (Grass-Telefactor, West Warwick, R.I.) FTO3 isometric force transducer under a resting tension of 0.5 g. Muscles were stimulated to contract by administering 400 msec pulse trains (1 msec duration, supramaximal voltage, 10 Hz) with a Grass S88 stimulator. An IC50 value for test compound inhibition of electrically-induced contractions was produced through the addition of cumulative concentrations of test compound to the bathing solution (Chang et al., 1993).
The ED50 values for formula (ii) were extrapolated from curves showing the dose concentration plotted against the response and are presented in FIG. 2.

reserpine treated rats = assay: Locomotor activity in reserpine treated rats; assay type: in vivo, rat; details: compound 18 hours after reserpine, 3, 10 or 30 mg/kg, total counts over 1 h
Method: (§3) Behavioral parameters were monitored in transparent shoebox cages that measured 45×25×20 cm, with a 1-cm depth of wood chips on the cage floor and a plastic grid on top of the cage. Rectangular photocell monitors with a bank of 3 photocell beams surrounded each test cage. Ambulations (locomotor activity: total number of beam breaks in 1 hour) were recorded by computer and stored for each test session.
(§4) Animals were administered injections of dextrose, reserpine or haloperidol. Formula (i) or Formula (ii) was then administered 18 hours after reserpine at doses of 3, 10 or 30 mg/kg or 15 minutes after haloperidol at doses of 1, 3, 10 or 30 mg/kg. Animals were monitored over a 60-min period in all instances, and data are expressed as total counts over the entire 1 h test period. […] In these studies, clinically effective therapies such as dopamine replacement therapy restore locomotor activity in dopamine-depleted or dopamine antagonist treated animals. Dopamine replacement therapy also, however, produces an overshoot in locomotor activity beyond the locomotor counts observed with normal control animals (with intact dopamine systems). This is considered the activating component of dopamine replacement therapy that results in dyskinesias in Parkinson's patients.

haloperidol-treated rats = assay: Locomotor activity in haloperidol treated rats; assay type: in vivo, rat; details: for Efficacy on locomotor activity (FIG. 1): compound 15 minutes after haloperidol, 1, 3, 10 or 30 mg/kg, total counts over 1 h
Method: as §3, §4

mice [3] = assay: Seizure-like convulsion incidence in mice; assay type: in vivo, mouse
Excerpt: One of the most obvious side-effects of potent delta agonists that rapidly penetrate the blood brain barrier is convulsive episodes reminiscent of possible seizure-like brain activity. The mouse is the chosen species for study of these effects since the mouse is the most highly convulsion-sensitive rodent species and mice present with a clear and obvious, whole body tonic-clonic convulsion. One of the earliest phases of delta agonist safety assessments is thus the determination of the convulsion threshold in mice.

rats [4] = assay: Seizure-like convulsant activity in rats; assay type: in vivo, rat; details: oral doses up to 40 mg/kg, results not shown
[5] = tested on: Parkinson's disease rodent models; assay: Parkinson's disease rodent models (summary statements); assay type: in vivo, rat; details: for Overshoot of locomotor activation beyond normal control animals: haloperidol- or reserpine-treated rats
Method: as §3, §4
An opioid receptor agonist selective for the delta receptor. • 2. Active in Parkinson's disease rodent models. • a. Potent at improving locomotor activity of haloperidol-treated rats. • b. Potent at improving locomotor activity in reserpine treated rats. • 3. Orally active in Parkinson's disease rodent models. • a.

mu-opioid receptor [6] = molecular target: T2, mu-opioid receptor; details: known results of SNC80; read-out: Receptor Binding Affinity, Ki Mu; cited from earlier work
kappa-opioid receptor [7] = molecular target: T3, kappa-opioid receptor; details: known results of SNC80; read-out: Receptor Binding Affinity, Ki Kappa; cited from earlier work
mice [8] = details: cited from earlier work
rats [9] = details: cited from earlier work
[10] = tested on: rats treated with reserpine or dopamine receptor antagonists (haloperidol or SCH23390); details: 10 mg/kg i.p.; cited from earlier work
MPTP-treated marmosets = details: cited from earlier work
[11] = tested on: MPTP-lesioned primate (marmosets) model of Parkinson's disease; details: 10 mg/kg i.p., without attenuation of the anti-parkinsonian actions of L-DOPA; cited from earlier work

T2 sequence (P33535 whole entry): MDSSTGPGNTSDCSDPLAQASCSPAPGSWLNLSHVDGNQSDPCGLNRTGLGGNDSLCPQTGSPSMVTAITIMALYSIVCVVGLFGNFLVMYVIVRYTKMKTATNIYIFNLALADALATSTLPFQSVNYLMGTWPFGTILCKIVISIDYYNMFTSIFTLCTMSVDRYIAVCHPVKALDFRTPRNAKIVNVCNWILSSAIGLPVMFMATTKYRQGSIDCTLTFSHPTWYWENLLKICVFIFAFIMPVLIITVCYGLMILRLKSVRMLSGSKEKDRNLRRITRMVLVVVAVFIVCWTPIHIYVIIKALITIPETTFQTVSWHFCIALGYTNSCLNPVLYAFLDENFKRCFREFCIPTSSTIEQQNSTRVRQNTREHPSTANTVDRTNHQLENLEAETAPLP
T4 sequence (P32300 whole entry): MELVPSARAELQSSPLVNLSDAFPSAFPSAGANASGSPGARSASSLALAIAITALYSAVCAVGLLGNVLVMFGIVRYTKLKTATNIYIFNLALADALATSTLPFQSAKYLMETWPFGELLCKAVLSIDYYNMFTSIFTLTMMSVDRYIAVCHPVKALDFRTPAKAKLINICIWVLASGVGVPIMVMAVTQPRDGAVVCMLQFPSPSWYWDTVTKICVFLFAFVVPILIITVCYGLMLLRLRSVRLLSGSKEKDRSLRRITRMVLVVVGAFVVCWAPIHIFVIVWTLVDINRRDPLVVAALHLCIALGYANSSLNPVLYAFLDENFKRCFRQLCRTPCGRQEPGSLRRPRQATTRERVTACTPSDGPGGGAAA
T3 sequence (P41144 whole entry): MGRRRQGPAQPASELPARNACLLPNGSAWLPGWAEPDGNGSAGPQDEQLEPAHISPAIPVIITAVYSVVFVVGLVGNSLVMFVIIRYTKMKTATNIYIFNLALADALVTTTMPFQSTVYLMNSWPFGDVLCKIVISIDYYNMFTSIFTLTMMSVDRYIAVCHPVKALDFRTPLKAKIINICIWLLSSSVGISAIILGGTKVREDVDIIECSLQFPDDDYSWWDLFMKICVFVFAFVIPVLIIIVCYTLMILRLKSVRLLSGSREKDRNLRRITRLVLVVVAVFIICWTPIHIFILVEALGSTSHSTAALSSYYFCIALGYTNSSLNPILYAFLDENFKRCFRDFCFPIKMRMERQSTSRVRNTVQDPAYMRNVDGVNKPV
T1 sequence (P33533 whole entry): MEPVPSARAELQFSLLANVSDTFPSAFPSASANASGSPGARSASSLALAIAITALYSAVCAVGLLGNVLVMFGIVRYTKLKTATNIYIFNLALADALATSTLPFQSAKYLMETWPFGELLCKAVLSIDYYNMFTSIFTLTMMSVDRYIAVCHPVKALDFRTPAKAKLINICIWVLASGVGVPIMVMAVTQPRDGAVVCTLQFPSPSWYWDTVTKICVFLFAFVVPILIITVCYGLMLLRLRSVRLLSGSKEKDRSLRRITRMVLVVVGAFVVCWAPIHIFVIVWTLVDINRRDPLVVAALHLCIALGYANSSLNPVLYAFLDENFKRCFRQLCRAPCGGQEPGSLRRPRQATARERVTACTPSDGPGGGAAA

CCN(CC)C(=O)c1ccc([C@H](c2cccc(O)c2)N2C[C@@H](C)N(Cc3cccc(F)c3)C[C@@H]2C)cc1 [Formula (i), 4-((alpha-R)-alpha-((2S,5R)-2,5-Dimethyl-4-(3-fluorobenzyl)-1-piperazinyl)-3-hydroxybenzyl)-N,N-diethylbenzamide]
Ki (delta-opioid receptor): 0.73 nM | Binding affinity for the delta receptor compared to SNC80 (delta-opioid receptor): increased binding affinity | Ki (mu-opioid receptor [1]): 11.6 nM | Binding affinity for the mu receptor compared to SNC80 (mu-opioid receptor [1]): increased binding affinity | Ki (kappa-opioid receptor [2]): 567 nM | EC50 (delta receptor): 2.6 nM | Efficacy on locomotor activity (FIG. 1) (reserpine treated rats): clear efficacy | Efficacy on locomotor activity (FIG. 1) (haloperidol-treated rats; haloperidol treated rats): clear efficacy | Seizure-like convulsion incidence in mice (% of animals treated) (mice [3]; Intravenous 0.3 mg/kg): 0% | Seizure-like convulsion incidence in mice (% of animals treated) (mice [3]; Intravenous 1 mg/kg): 50% | Seizure-like convulsion incidence in mice (% of animals treated) (mice [3]; Intravenous 3 mg/kg): 40% | Seizure-like convulsion incidence in mice (% of animals treated) (mice [3]; Oral 15 mg/kg): 23% | Seizure activity in mice relative to SNC80 (mice [3]): reduced relative to SNC80 | Oral seizure-like convulsant activity in rats (rats [4]): no oral-seizure-like convulsant activity | Overshoot of locomotor activation beyond normal control animals [5]: No evidence for overshoot of locomotor activation | Oral activity in Parkinson's disease rodent models [5]: Orally active

CCN(CC)C(=O)c1ccc([C@H](c2cccc(O)c2)N2C[C@@H](C)N(Cc3ccccc3F)C[C@@H]2C)cc1 [Formula (ii), 4-((Alpha-R)-Alpha-((2S,5R)-2,5-Dimethyl-4-(2-fluorobenzyl)-1-piperazinyl)-3-hydroxybenzyl)-N,N-diethylbenzamide]
Binding affinity for the delta receptor compared to SNC80 (delta-opioid receptor): increased binding affinity | Ki (delta-opioid receptor; rat whole brain homogenate, 0.1 nM [3H]DPDPE, read-out: Receptor Binding Affinity, Ki Delta): 0.77 nM | Ki (mu-opioid receptor [1]): 7.8 nM | Binding affinity for the mu receptor compared to SNC80 (mu-opioid receptor [1]): increased binding affinity | Ki (kappa-opioid receptor [2]): 171 nM | EC50 (delta receptor): 3 nM | Efficacy on locomotor activity (FIG. 1) (reserpine treated rats): clear efficacy | Efficacy on locomotor activity (FIG. 1) (haloperidol-treated rats; haloperidol treated rats): clear efficacy | Beneficial effects in presence of delta receptor antagonist naltrindole (FIG. 4) (haloperidol-treated rats; haloperidol treated rats, with naltrindole (NTI)): completely blocked | Anti-parkinsonian syndrome effects (FIG. 3B) (haloperidol-treated rats; haloperidol-treated rats, i.p. (intraperitoneal)): shows potency | Anti-parkinsonian syndrome effects (FIG. 3A) (haloperidol-treated rats; haloperidol-treated rats, p.o. (oral, by gavage)): shows potency | Seizure-like convulsion incidence in mice (% of animals treated) (mice [3]; Intravenous 1 mg/kg): 0% | Seizure-like convulsion incidence in mice (% of animals treated) (mice [3]; Intravenous 3 mg/kg): 30% | Seizure-like convulsion incidence in mice (% of animals treated) (mice [3]; Oral 15 mg/kg): 20% | Seizure-like convulsion incidence in mice (% of animals treated) (mice [3]; Oral 30 mg/kg): 20% | Seizure-like convulsion incidence in mice (% of animals treated) (mice [3]; Oral 60 mg/kg): 30% | Seizure activity in mice relative to SNC80 (mice [3]): reduced relative to SNC80 | Overshoot of locomotor activation beyond normal control animals [5]: No evidence for overshoot of locomotor activation | Oral activity in Parkinson's disease rodent models [5]: Orally active

CCN(CC)C(=O)c1ccc([C@H](c2cccc(OC)c2)N2C[C@@H](C)N(Cc3cccc(F)c3)C[C@@H]2C)cc1 [Formula (iii), 4-((alpha-R)-alpha-((2S,5R)-2,5-Dimethyl-4-(3-fluorobenzyl)-1-piperazinyl)-3-methoxybenzyl)-N,N-diethylbenzamide]
Ki (delta-opioid receptor): 5.6 nM | Ki (mu-opioid receptor [1]): 5000 nM | Ki (kappa-opioid receptor [2]): 100 nM | EC50 (delta receptor): 29 nM | Seizure-like convulsion incidence in mice (% of animals treated) (mice [3]; Intravenous 3 mg/kg): 20% | Seizure-like convulsion incidence in mice (% of animals treated) (mice [3]; Oral 60 mg/kg): 0%

CCN(CC)C(=O)c1ccc([C@H](c2cccc(OC)c2)N2C[C@@H](C)N(Cc3ccccc3F)C[C@@H]2C)cc1 [Formula (iv), 4-((alpha-R)-alpha-((2S,5R)-2,5-Dimethyl-4-(2-fluorobenzyl)-1-piperazinyl)-3-methoxybenzyl)-N,N-diethylbenzamide]
Ki (delta-opioid receptor): 4.2 nM | Ki (mu-opioid receptor [1]): 5000 nM | Ki (kappa-opioid receptor [2]): 100 nM | EC50 (delta receptor): 4.1 nM | Seizure-like convulsion incidence in mice (% of animals treated) (mice [3]; Intravenous 1 mg/kg): 0% | Seizure-like convulsion incidence in mice (% of animals treated) (mice [3]; Intravenous 3 mg/kg): 20% | Seizure-like convulsion incidence in mice (% of animals treated) (mice [3]; Oral 30 mg/kg): 0% | Seizure-like convulsion incidence in mice (% of animals treated) (mice [3]; Oral 60 mg/kg): 10%

C=CCN1C[C@H](C)N([C@H](c2ccc(C(=O)N(CC)CC)cc2)c2cccc(OC)c2)C[C@H]1C [SNC80]
Efficacy on locomotor activity (FIG. 1) (reserpine treated rats): clear efficacy | Efficacy on locomotor activity (FIG. 1) (haloperidol-treated rats; haloperidol treated rats): clear efficacy | Seizure-like convulsion incidence in mice (% of animals treated) (mice [3]; Intravenous 0.3 mg/kg): 0% | Seizure-like convulsion incidence in mice (% of animals treated) (mice [3]; Intravenous 1 mg/kg): 30% | Seizure-like convulsion incidence in mice (% of animals treated) (mice [3]; Intravenous 3 mg/kg): 100% | Oral activity in Parkinson's disease rodent models [5]: lack of oral activity | Ki (mu-opioid receptor [6]): 4.8 µM | Ki (kappa-opioid receptor [7]): 4.1 µM | Seizure-like convulsions (Broom, et al., 2002) (mice [8]): produce seizure-like convulsions | Seizure-like convulsions (Broom, et al., 2002) (rats [9]): produce seizure-like convulsions | Behavioral deficits (ambulatory behavior, grooming, rearing, social interaction and exploration, static investigation) [10]: restored behavioral deficits | Parkinsonian posture induced by MPTP treatment (MPTP-treated marmosets): not statistically reversed | Motor activity, bradykinesia and disability scores (MPTP-treated marmosets; similar dose levels (10 mg/kg)): restored motor activity, bradykinesia and disability scores to normal

COc1cccc2c1[C@]13CCN(CC4CC4)[C@H](C2)[C@]1(OC)CCC(=O)C3 [cyprodime]
L-DOPA-induced dyskinesia [11]: reduce completely

Oc1ccc2c3c1O[C@H]1c4[nH]c5ccccc5c4C[C@@]4(O)[C@@H](C2)N(CC2CC2)CC[C@]314 [naltrindole, reference compound]
Effect alone in haloperidol treated rats (FIG. 4) (haloperidol-treated rats; naltrindole alone): no effect
